Data reported in US20040063790A1, “Methods for inhibition of angiogenesis” (The Scripps Research Institute, priority 1996, published 2004).
[ ]: non-standard residue; d: D form.

Legend:
[1] = system: αvβ3-expressing CS-1 cells; assay: Inhibition of cell attachment assay; assay type: cell-based, hamster
Description: As one means to determine integrin receptor specificity of the antagonists of this invention, inhibition of cell attachment assays were performed as described below.
Briefly, CS-1 hamster melanoma cells lacking expression of αvβ3 and αvβ5 were first transfected with an plasmid for expressing the […] as previously described by Filardo et al., J. Cell Biol., 130:441-450 (1995). Specificity of potential αvβ3 antagonists was determined by the ability to block the binding of αvβ3-expressing CS-1 cells to VN or laminin coated plates. As an example of a typical assay, the wells were first coated with 10 μg/ml substrate overnight. After rinsing and blocking with 1% heat-denatured BSA in PBS at room temperature for 30 minutes, peptide 85189 (SEQ ID NO: 15) over a concentration range of 0.0001 μM to 100 μM, was separately mixed with CS-1 cells for applying to wells with a cell number of 50, 000 cells/well. After a 10-15 minute incubation at 37° C., the solution containing the cells and peptides was discarded. The number of attached cells was then determined following staining with 1% crystal violet. Cell associated crystal violet was eluted by the addition of 100 microliters (μl) of 10% acetic acid. Cell adhesion was quantified by measuring the optical density of the eluted crystal violet at a wave length of 600 nm.

[2] = system: vascular cell apoptosis; assay: Apoptosis in bFGF-treated CAM, Apop Tag staining; assay type: in vivo, chick; conditions: 300 μg/ml; treated two days prior; versus PBS or control peptide 69601
Description: CAM assays with growth factor-induced angiogenesis, as described in Example 4A, were also performed with the synthetic peptides of this invention to determine the effect of cyclic peptides on apoptosis. The peptides cyclo-RGDfV (66203) and cyclo-RADfV (69601) were prepared as described in Example 1. The peptide solutions or PBS were injected into the CAM preparation at a concentration of 300 μg/ml. At 24 and 48 hours, the filter paper and surrounding CAM tissue was dissected and stained with the Apop Tag to detect apoptosis.

[3] = system: FgM tumors; assay: Tumor regression in the CAM assay, FgM; assay type: in vivo, chick; conditions: 100 μg intravenously 18 hours post-implantation; FIG. 17
Description: As described in Example 5, in addition to visually assessing the effect of anti-αvβ3 antagonists on growth factor or tumor induced angiogenesis, the effect of the antagonists was also assessed by measuring any changes to the tumor mass following exposure. For this analysis, the tumor-induced angiogenesis CAM assay system was prepared as described in Example 4C. At the end of the 7 day incubation period, the resulting tumors were resected from the CAMs and trimmed free of any residual CAM tissue, washed with 1 ml of phosphate buffer saline and wet weights were determined for each tumor.
To further assess the effects of αvβ3 antagonists on tumor growth and survival, fragments of human melanoma and fragments of carcinomas of the lung, pancreas, and larynx were placed on CAMS of 10-day old embryos as described in Example 3A.
Additional tumor regression assays were performed with the αvβ3-reactive peptide 85189 (SEQ ID NO: 15) against 69601 as a control. The assays were performed as described above with the exception that 100 μg of peptide was intravenously injected into the CAM at 18 hours post-implantation. After 48 hours more, the tumors were then resected and wet weights were obtained.

Substance | inhibition of β3-expressing CS-1 cell adhesion to laminin ([1]; laminin) | inhibition of β3-expressing CS-1 cell adhesion to vitronectin ([1]; vitronectin) | increase in Apop Tag staining [2] | effect on tumor weight, FgM [3]
cyclo (RGDfV) [Peptide 66203] | but not laminin | inhibited | 3 to 4 fold | 
cyclo (RADfV) (cyclo(RAD[dF]V); SMILES CC(C)[C@@H]1NC(=O)[C@@H](Cc2ccccc2)NC(=O)[C@H](CC(=O)O)NC(=O)[C@H](C)NC(=O)[C@H](CCCNC(=N)N)NC1=O) [Peptide 69601, reference compound] |  |  |  | lack of effect
